# From patent US9718823B2, “2, 6-Di-nitrogen-containing substituted purine derivative, and preparation method, pharmaceutical composition and use thereof” (Zhejiang Medicine Co., Ltd. Xinchang Pharmaceutical Factory, priority 2013, dated 2017)
# Structures can show the parent of a compound that is named as a salt.
# What was measured:
# [1] = tested on: BT474 human breast cancer cell strain; experiment: Antitumor cell proliferation in vitro, CCK-8 detection kit, BT474; format: cell-based; conditions: Homo sapiens, BT-474, 72 h, BT-474 cells, 1st and 2nd test where printed
# Experimental: The half inhibitory concentration IC50 of proliferation of three kinds of tumor cell strain (U87MG, PC-3, BT474) for 12 candidate compounds of the present invention is detected by CCK-8 detection kits.
# BT474 human breast cancer cell strain (cell bank of Chinese Academy of Sciences) Reagents and materials:
# The studied compounds are dissolved by DMSO to make the final concentration 10 mM.
# • a) Collecting the cells in logarithmic phase, counting, and resuspending the cells with complete medium. • b) Adjusting the concentration of cells to a suitable concentration, inoculating in 96 well plates, each well is inoculated to 100 μl cell suspension.
# c) incubating cells for 24 hours in a 5% CO2 incubator at temperature of 37° C., under the condition of 100% relative humidity.
# a) The cells in logarithmic phase is collected, counted, resuspended with complete medium. The concentration of cells is adjusted to a suitable concentration (determined in accordance with the optimizable test results of cell density), and the cells is inoculated in 96 well plates, wherein each well is inoculated 100 μl cell suspension, Cells are incubated for 24 hours in 5% CO2 incubator at temperature of 37° C. under the condition of 100% relative humidity.
# b) The test compounds are diluted to 500 μM with culture medium, then diluted in series eight times. […] as 25 μl/well. The final concentrations of the compounds are diluted from 100 μM to 0 μM, with 4 times dilution, and there are a total of 10 concentration points.
# c) Cells are incubated for 72 hours in 5% CO2 incubator at temperature of 37° C. under the condition of 100% relative humidity.
# d) The culture medium is aspirated and discarded, and complete medium containing 10% CCK-8 is incubated in a incubator at 37° C. for 2˜4 hours.
# e) After shocking gently, the absorbance of the culture medium is measured at 450 nm wavelength on SpectraMax M5 Microplate Reader, with the absorbance at 650 nm as reference, to calculate the inhibition rate.
# [2] = tested on: PC-3 cell Akt (Ser473) phosphorylation; experiment: Inhibition of phosphorylation level of PC-3 cell Akt (Ser473), Cisbio HTRF phospho Akt (Ser473) cell-based assay; parameters: species or system human; conditions: hEGF 100 ng/ml stimulation, 1st and 2nd test where printed
# Experimental: The inhibitory activity of the compounds of present invention to the phosphorylation level of PC-3 cell Akt (Ser473) is studied by using Cisbio HTRF phospho Akt (Ser473) cell-based assay test kit.
# Cell strain: PC-3 prostate cancer cells line (cell bank of Chinese Academy of Sciences) is cultured by using culture medium (F12K+10% FBS).
# hEGF is prepared as stock solution of 100 ug/ml with 10 mM acetic acid, and the stock solution is diluted to 200 ng/ml with serum-free medium, added 50 ul to each well to be stimulated.
# b) Preparation of Complete Lysate • 4×Lysis Buffer is diluted 4 times with ddH2O to prepare 1×Lysis Buffer. • 100×Blocking Reagent is diluted 100 times with 1×Lysis Buffer.
# c) Preparation of Detection Liquid • 20×Anti-Phospho-Akt is diluted 20 times with Detection Buffer. • 20×Anti-Akt is diluted 20 times with Detection Buffer.
# The compounds are diluted with DMSO, and the working concentration of compounds is 100 times of detection concentration.
# Cells in logarithmic growth phase are collected, counted, and resuspended with complete culture medium;
# The cell concentration is adjusted to appropriate concentration, and cell suspension is inoculated into 96 well plates at 50 μl per well;
# Cells are incubated for more than 4 h in the 5% CO2 incubator at temperature of 37° C., relative humidity of 100%;
# Cell plate is removed from the incubator. The cell suspension is aspirated gently, and 50 ul serum-free F12K medium is quickly added, then the cell plate is placed into the incubator to culture overnight.
# The compounds are diluted in a linear gradient with DMSO.
# 0.5 ul compounds is added into the test well, mixed on oscillators, and incubated at room temperature for 2 hours.
# Proportioned hEGF solution is added to test well at 50 μl per well, and the final concentration is 100 ng/ml. serum-free medium is added into The negative control well at 50 μl per well.
# The solution is mixed on oscillator and incubated at room temperature for 2 hours.
# The liquid in 96 well plates is aspirated by multichannel pipette or the supernatant is discarded gently. The proportioned complete lysate is added quickly at 50 μl per well.
# The solution is mixed on oscillator and lysed at room temperature for 30 min.
# 16 μl cell lysate is transferred from the 96 well plates to white low volume 384 well plates, and the proportioned two pairs of detection antibody are added. The solution is mixed on oscillator, and incubated at room temperature for 4 hours to detect the readings.
# PI3K α = target: T1, PI3K α (Homo sapiens, UniProt P42336); experiment: Inhibitory activity to PI3K α, PI 3-Kinase (human) HTRF Assay kit; format: biochemical; conditions: read-out: % Inhibition Rate to PI3K α
# T1 construct: purchased Millipore 14-602
# In short: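 HTRF assay using human PI3Kα at 8 ng/well, 100 μM ATP and PIP2 (2× working stock 20 μM) in 20 μL reaction containing 1% DMSO. Screened at 10 μM and 1 μM for percent inhibition, with selected compounds then taken to IC50 determination.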
# T1 sequence (P42336 whole entry): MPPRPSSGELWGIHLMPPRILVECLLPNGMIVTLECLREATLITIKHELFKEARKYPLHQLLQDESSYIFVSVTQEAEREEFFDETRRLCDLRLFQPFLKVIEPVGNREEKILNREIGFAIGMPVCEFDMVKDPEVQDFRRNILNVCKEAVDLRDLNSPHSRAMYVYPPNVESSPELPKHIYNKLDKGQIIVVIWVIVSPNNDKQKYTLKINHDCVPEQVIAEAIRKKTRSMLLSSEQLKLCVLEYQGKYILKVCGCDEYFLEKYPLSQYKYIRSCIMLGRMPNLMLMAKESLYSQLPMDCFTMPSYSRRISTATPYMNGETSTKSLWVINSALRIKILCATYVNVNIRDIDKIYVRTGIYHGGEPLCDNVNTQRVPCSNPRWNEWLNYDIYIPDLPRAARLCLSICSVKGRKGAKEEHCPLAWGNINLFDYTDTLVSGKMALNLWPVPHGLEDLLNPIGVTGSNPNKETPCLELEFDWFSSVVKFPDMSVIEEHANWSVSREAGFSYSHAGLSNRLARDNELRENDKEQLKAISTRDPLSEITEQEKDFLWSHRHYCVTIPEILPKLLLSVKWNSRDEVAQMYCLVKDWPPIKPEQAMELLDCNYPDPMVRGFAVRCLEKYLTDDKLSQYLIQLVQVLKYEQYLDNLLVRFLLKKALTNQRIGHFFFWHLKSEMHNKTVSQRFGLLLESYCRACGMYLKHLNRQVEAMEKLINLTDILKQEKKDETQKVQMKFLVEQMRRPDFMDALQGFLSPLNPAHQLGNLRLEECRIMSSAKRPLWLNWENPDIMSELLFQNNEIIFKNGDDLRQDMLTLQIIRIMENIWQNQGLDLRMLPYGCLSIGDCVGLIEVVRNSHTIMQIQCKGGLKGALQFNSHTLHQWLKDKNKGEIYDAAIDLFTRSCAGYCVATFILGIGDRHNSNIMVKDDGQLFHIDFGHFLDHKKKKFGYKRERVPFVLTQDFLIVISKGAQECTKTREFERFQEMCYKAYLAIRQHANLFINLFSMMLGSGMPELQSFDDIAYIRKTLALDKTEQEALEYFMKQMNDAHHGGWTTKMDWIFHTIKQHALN
# T1 sequence (P27986 whole entry partner): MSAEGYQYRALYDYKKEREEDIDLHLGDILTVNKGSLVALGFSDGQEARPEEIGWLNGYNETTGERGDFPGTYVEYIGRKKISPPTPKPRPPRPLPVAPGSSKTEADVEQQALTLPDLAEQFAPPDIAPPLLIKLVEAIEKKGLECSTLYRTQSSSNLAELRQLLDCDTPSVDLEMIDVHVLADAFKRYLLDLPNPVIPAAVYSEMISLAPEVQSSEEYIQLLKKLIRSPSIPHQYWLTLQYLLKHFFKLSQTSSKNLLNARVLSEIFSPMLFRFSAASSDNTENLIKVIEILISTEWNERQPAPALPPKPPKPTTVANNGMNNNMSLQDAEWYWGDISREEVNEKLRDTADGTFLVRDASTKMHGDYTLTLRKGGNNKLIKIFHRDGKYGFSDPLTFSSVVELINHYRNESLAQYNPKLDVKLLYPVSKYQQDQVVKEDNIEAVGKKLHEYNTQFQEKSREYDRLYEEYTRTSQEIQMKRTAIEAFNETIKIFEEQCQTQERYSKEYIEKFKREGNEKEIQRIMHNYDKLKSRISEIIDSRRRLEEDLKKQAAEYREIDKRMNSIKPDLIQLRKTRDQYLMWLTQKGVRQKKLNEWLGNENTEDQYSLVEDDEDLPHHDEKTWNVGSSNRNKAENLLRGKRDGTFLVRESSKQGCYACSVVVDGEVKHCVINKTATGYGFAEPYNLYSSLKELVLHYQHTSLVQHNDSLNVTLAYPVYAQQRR
"IC50 ([2]; PC-3 cells, dihydrate di-methanesulfonate)",Structure (SMILES),IC50 [1],inhibition at 1 µM (PI3K α),inhibition at 10 µM (PI3K α),"IC50 ([2]; Homo sapiens, PC-3, PC-3 cells)"
74 nM,"c1ccc(-c2ccnc3ccc(Nc4nc(NC5CC5)c5nc[nH]c5n4)cc23)cc1 [MED1007-91, N6-cyclopropyl-N2-(4-phenylquinoline-6-yl)-9H-purine-2,6-diammonium salt dihydrate di-methanesulfonate]",523 nM,97%,124%,–
–,"COC[C@H]1OC(=O)c2coc3c2[C@@]1(C)C1=C(C3=O)[C@@H]2CCC(=O)[C@@]2(C)C[C@H]1OC(C)=O [Wortmannin, reference compound]",5210 nM,109%,105%,7.41 nM
